Results on 35 compounds are retold here after patent US20140045856A1, “4-Methyl-2,3,5,9,9b-pentaaza-cyclopenta[a]naphthalenes” (BOEHRINGER INGELHEIM INTERNATIONAL GMBH, priority 2012, published 2014).

The target in one series is PDE2A (Homo sapiens, UniProt O00408). The experiment in a line: PDE 2A assay with fluorescent substrate (IMAP, fluorescence polarization). It counts as biochemical. The note with it: read-out: PDE2 IC50. For orientation: Fluorescence polarisation rises when a labelled molecule tumbles more slowly, as on binding a larger partner.
PDE2A, sequence (O00408 whole entry, species assumed): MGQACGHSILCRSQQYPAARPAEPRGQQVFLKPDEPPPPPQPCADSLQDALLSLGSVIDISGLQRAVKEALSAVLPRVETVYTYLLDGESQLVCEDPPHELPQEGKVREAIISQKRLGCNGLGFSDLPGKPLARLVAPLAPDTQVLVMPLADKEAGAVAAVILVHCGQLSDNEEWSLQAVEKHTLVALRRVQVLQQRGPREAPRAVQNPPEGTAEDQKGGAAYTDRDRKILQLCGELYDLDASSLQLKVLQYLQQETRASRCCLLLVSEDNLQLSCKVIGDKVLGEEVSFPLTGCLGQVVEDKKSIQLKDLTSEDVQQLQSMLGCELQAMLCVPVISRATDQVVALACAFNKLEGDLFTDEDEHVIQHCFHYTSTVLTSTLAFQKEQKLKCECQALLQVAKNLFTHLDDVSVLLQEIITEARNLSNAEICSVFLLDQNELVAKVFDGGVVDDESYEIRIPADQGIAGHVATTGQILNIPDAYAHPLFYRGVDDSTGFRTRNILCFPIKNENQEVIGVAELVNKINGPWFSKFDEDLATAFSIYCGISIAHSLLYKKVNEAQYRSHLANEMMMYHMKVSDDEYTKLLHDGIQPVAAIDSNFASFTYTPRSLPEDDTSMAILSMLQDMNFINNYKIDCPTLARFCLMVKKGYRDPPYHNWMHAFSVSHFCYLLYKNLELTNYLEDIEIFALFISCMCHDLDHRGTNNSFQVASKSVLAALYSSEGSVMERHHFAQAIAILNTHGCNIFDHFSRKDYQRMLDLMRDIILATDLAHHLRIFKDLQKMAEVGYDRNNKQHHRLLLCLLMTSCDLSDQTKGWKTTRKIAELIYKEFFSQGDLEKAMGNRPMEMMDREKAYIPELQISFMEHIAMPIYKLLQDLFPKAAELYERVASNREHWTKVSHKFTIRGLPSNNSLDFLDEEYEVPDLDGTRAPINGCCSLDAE
A short description of series [1]: Metabolic stability in pooled liver microsomes. The format is in vitro ADME. Conditions: human liver microsomes, 37° C., 1 mg/mL microsomal protein, test compound 1 μM, NADPH; for half-life at 1 μM: pooled liver microsomes, pH 7.6, read-out: Half-life - t½. Here is the method:
The metabolic stability of the compounds according to the invention has been investigated as follows:
The metabolic degradation of the test compound was assayed at 37° C. with pooled liver microsomes from various species. The final incubation volume of 100 μl per time point contains TRIS buffer pH 7.6 at room temperature (0.1 M), magnesium chloride (5 mM), microsomal protein (1 mg/mL for human and dog, 0.5 mg/mL for other species) and the test compound at a final concentration of 1 μM. Following a short preincubation period at 37° C., the reactions were initiated by addition of betanicotinamide adenine dinucleotide phosphate, reduced form (NADPH, 1 mM), and terminated by transferring an aliquot into solvent after different time points. […] The half-life was determined by the slope of the semi-logarithmic plot of the concentration-time profile.
In general terms: Liver microsomes are vesicles of endoplasmic reticulum, rich in cytochrome P450 enzymes.

The next series addresses PDE10 (Homo sapiens, UniProt Q9Y233). The experiment in a line: PDE10 assay with fluorescent substrate (IMAP, fluorescence polarization). It counts as biochemical.
The nature of series [2]: Animal experiments and sample analysis: plasma, brain and CSF concentration. It counts as in vivo. The note with it: rat; for concentration at 2 h / Kp at 2 h: 2 h between administration and CSF sampling; for concentration at 2 h / concentration at 0.5 h: doses of 10.0 or 5 μmol/kg; for concentration at 0.5 h / Kp at 0.5 h: 0.5 h between administration and CSF sampling.
Method: Test compounds were administered to animals (rat) different routes at doses of 10.0 or 5 μmol/kg, (both oral and intravenous). After compound administration, the animals were sacrificed in a CO2 chamber and CSF samples were carefully collected by puncture of the cisterna magna. Immediately after CSF sampling, blood was taken by heart puncture and brains were dissected out. Blood was collected in EDTA-coated microvettes and plasma was prepared by centrifugation. Concentration of the test compounds in plasma, CSF or brain homogenate was determined using HPLC-MS-MS.
Setting [3] is: brain, read-out: c(brain)/c(plasma).

Read-outs that look alike come from different tables or passages of the source. A value given as a limit tells only on which side of the number the result lay.

PDE10, sequence (Q9Y233 whole entry, species assumed): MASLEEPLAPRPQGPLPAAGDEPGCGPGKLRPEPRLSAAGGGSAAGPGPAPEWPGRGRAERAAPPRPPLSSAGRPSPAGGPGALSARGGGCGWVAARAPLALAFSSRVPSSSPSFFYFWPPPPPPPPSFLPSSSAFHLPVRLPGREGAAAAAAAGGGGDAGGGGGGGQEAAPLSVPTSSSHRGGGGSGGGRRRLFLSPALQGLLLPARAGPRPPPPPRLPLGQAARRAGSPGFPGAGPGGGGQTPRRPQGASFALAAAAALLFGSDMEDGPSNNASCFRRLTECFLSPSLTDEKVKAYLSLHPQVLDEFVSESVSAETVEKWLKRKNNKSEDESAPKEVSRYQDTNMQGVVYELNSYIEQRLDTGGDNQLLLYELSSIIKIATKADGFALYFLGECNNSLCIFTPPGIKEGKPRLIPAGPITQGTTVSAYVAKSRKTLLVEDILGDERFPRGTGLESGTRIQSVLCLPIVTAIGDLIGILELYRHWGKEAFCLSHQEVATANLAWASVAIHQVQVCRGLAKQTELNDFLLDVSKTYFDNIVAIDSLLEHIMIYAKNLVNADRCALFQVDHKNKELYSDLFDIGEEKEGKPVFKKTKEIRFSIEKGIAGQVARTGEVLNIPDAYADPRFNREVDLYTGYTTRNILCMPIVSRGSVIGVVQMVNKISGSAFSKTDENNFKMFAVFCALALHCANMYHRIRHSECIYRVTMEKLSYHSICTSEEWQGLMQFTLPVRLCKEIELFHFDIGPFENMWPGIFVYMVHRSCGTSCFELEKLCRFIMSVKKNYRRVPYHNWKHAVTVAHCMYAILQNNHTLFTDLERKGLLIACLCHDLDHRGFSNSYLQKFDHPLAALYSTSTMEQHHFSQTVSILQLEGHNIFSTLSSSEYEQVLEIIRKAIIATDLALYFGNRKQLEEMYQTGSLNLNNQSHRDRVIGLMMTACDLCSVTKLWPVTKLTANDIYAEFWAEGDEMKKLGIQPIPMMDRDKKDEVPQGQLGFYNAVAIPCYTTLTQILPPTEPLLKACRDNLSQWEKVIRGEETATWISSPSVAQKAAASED
From the text for PDE10: (§1) c) Phosphodiesterase (PDE) 2A and 10 Assay with Fluorescent Substrate
(§2) The PDE reaction cleaves cAMP to AMP. The IMAP system (Molecular Device) using fluorescence polarization (FP) as detection principle was used to measure enzyme activity. A fluorescent labeled cAMP was used as substrate for the reaction, generating a labeled AMP. The fluorescent AMP binds specifically to the large M(III)-based nano-particles which reduces the rotational speed of the substrate and thus increases its polarization.
(§3) The inhibition of PDE 2A or 10 enzyme activity was assessed using IMAP-Phosphodiesterase-cAMP fluorescence labeled substrate (Molecular Devices, Order No. R7506), IMAP TR-FRET screening express (Molecular Devices, Order No. R8160, the TR-FRET component will not be used) and PDE 2A or PDE10 protein expressed upon baculovirus infection in SF9 cells. The cells were incubated after infection for ˜3 days and protein production was confirmed by Western Blot. The cells were collected by centrifugation and the pellet frozen in liquid nitrogen before it was resuspended in PBS containing 1% Triton X-100 and protease inhibitors.
(§4) All reactions were performed in 384 well plates, Perkin Elmer black optiplates and IMAP reaction buffer with 0.1% Tween20 (kit component)
(§5) Compounds were serial diluted in DMSO. With an intermediate dilution step with reaction buffer DMSO concentration was reduced to achieve 1% DMSO in the assay reaction. Setup of the assay started with 10 μl enzyme (˜10 ng/well, depending on prep. batch), 5 μl compound, reaction was started by addition of 5 μl labeled cAMP (30 nM, final concentration), immediately mixed for 15 seconds on a Eppendorf mixmate (2000 rpm) followed by an incubation at room temperature for 90 minutes in the dark. Reaction is stopped by adding of 60 μl binding buffer for FP/cAMP (kit component).
(§6) Each assay plate contained wells with vehicle controls (1% DMSO) for the measurement of non-inhibited reaction (=100% control) and wells without enzyme as 0% controls.
From the text for PDE2A: as §1, §2, §3, §4, §5, §6

In the case of `Cc1nc2ccc(C3(C)CC3)nc2n2c(-c3cc(C(C)(C)O)ccc3F)nnc12` [Example 72], the IC50 at PDE2A was determined as 0.032 µM. In series [1], the “Half-life - t½” value came to 2.17 h.
As to `Cc1nc2ccc(C3CC3)nc2n2c(-c3cc(OC4COCC4O)ccc3Cl)nnc12` (racemic) [Example 58a], in series [1], the “Half-life - t½” value worked out at 2.17 h.
On to `Cc1ccc2nc(C)c3nnc(-c4cc(C(C)O)ccc4Cl)n3c2n1` (centres unmarked) [Example 63], for which the IC50 on PDE2A stood at 0.06 µM; on PDE10 it was 1.71 µM. Besides, in series [1], the “Half-life - t½” value was 2.17 h.
In the same order, the values of `Cc1nc2cccnc2n2c(-c3cc(C4(O)CCOC4)ccc3Cl)nnc12` (single isomer, unassigned) [Example 99] are 0.125 µM, 1.51 µM and 2.17 h.
Turning to `Cc1ccc(C(C)(C)CO)cc1-c1nnc2c(C)nc3ccc(C4CC4)nc3n12` [Example 100], the figures for the IC50 on PDE2A and against PDE10 were 0.017 µM and 3.86 µM, respectively. Besides, in series [1], the half-life at 1 μM was found to be 0.2 h.
In the case of `Cc1nc2cccnc2n2c(-c3cc(OC4COCCC4O)ccc3Cl)nnc12` (single isomer, unassigned) [Example 58], the IC50 at PDE2A is 0.143 µM; on PDE10, 0.663 µM. In addition, in series [1], the “Half-life - t½” value came out at 2.17 h.
On to `Cc1nc2cccnc2n2c(-c3cc(C(C)(C)O)ccc3Cl)nnc12` [Example 70], for which the IC50 on PDE2A was found to be 0.163 µM; at PDE10 it was 8.62 µM. Moreover, the concentration at 2 h is 695 nM in series [2] (brain, read-out: conc brain); 2380 nM in series [2] (plasma, read-out: conc plasma); 276 nM in series [2] (read-out: conc CSF). Moreover, the Kp at 2 h was 0.29 in series [2] (setting [3]) and 0.12 in series [2] (read-out: c(CSF)/c(plasma)). Besides, in series [1], the “Half-life - t½” value amounted to 2.17 h.
As to `Cc1ccc(OCC2(O)CCC2)cc1-c1nnc2c(C)nc3cccnc3n12` [Example 50], the IC50 on PDE2A came to 0.194 µM; on PDE10 it was 7.12 µM. Besides, the “Half-life - t½” value in series [1] is 2.17 h.
Regarding `Cc1nc2cccnc2n2c(-c3cc(OC[C@@H](C)O)ccc3Cl)nnc12` [Example 17], in series [1], the “Half-life - t½” value was determined as 2.17 h.
Turning to `Cc1nc2cccnc2n2c(-c3cc(OCC(C)(C)O)ccc3Cl)nnc12` [Example 44], the IC50 came to 0.156 µM on PDE2A and 6.04 µM against PDE10. In addition, the concentration at 0.5 h in series [2] (brain, read-out: conc brain) turned out to be 670 nM; in series [2] (plasma, read-out: conc plasma), 2190 nM; in series [2] (read-out: conc CSF), 228 nM. Besides, the Kp at 0.5 h in series [2] (setting [3]) was 0.31; in series [2] (read-out: c(CSF)/c(plasma)), 0.1. Also, the “Half-life - t½” value in series [1] came out at 2.17 h.
Regarding `Cc1ccc2nc(C)c3nnc(-c4cc(C(C)(C)O)ccc4Cl)n3c2n1` [Example 71], the IC50 on PDE2A was determined as 0.109 µM. The “Half-life - t½” value in series [1] is 2.17 h.
As for `Cc1ccc(CCC(C)(C)O)cc1-c1nnc2c(C)nc3cccnc3n12` [Example 67], the IC50 was found to be 0.175 µM on PDE2A and 3.91 µM against PDE10. Moreover, the “Half-life - t½” value in series [1] turned out to be 2.17 h.
`Cc1nc2cccnc2n2c(-c3cc(OC4COCC4O)ccc3Cl)nnc12` (single isomer, unassigned) [Example 55a] came in with an IC50 against PDE10 of 2.44 µM. For the same compound, in series [1], the “Half-life - t½” value was 2.17 h.
Regarding `Cc1nc2ccc(C(C)C)nc2n2c(-c3cc(OCC(C)(C)O)ccc3F)nnc12` [Example 52], the values for the IC50 at PDE2A and against PDE10 were 0.011 µM and 1.2 µM, respectively. Further, in series [1], the “Half-life - t½” value was determined as 2.17 h.
For the compound `CCC(O)c1ccc(Cl)c(-c2nnc3c(C)nc4ccc(C)nc4n23)c1` (centres unmarked) [Example 62], the IC50 at PDE2A came to 0.011 µM. In addition, the “Half-life - t½” value in series [1] was determined as 2.17 h.
Consider `Cc1ccc(C2(O)CCOCC2O)cc1-c1nnc2c(C)nc3ccc(C4CC4)nc3n12` (single isomer, unassigned) [Example 104a], for which the IC50 on PDE2A was determined as 0.04 µM; against PDE10, 3.23 µM. In addition, the “Half-life - t½” value in series [1] worked out at 2.17 h.
`Cc1ccc2nc(C)c3nnc(-c4cc(C5(O)CCC5)ccc4Cl)n3c2n1` [Example 89] showed an IC50 against PDE10 of 0.187 µM. The “Half-life - t½” value in series [1] worked out at 2.17 h.
On to `Cc1ccc2nc(C)c3nnc(-c4cc(OCC(C)(C)O)ccc4Cl)n3c2n1` [Example 46], for which the IC50 at PDE2A was 0.05 µM. Further, the “Half-life - t½” value in series [1] turned out to be 2.17 h.
Consider `Cc1ccc(C2(O)CCOCC2O)cc1-c1nnc2c(C)nc3ccc(C4CC4)nc3n12` (single isomer, unassigned) [Example 104b], for which the results for the IC50 at PDE2A and against PDE10 were 0.03 µM and 9.76 µM, respectively. In addition, in series [1], the “Half-life - t½” value is 2.17 h.
For `Cc1ccc2nc(C)c3nnc(-c4cc(C(O)C(C)C)ccc4Cl)n3c2n1` (centres unmarked) [Example 59], the IC50 was 0.008 µM at PDE2A and 0.936 µM on PDE10. Also, the half-life at 1 μM in series [1] came out at 0.817 h.
With `Cc1ccc(C2(O)CCC2)cc1-c1nnc2c(C)nc3cccnc3n12` [Example 73], the IC50 on PDE2A stood at 0.189 µM. In addition, the “Half-life - t½” value in series [1] amounted to 2.17 h.
With `Cc1ccc(OC2COCC2O)cc1-c1nnc2c(C)nc3ccc(C4CC4)nc3n12` (racemic) [Example 57], in series [1], the “Half-life - t½” value came to 2.17 h.
On to `Cc1nc2ccc(C3CC3)nc2n2c(-c3cc(OC4COCCC4O)ccc3Cl)nnc12` (single isomer, unassigned) [Example 109d], for which the IC50 amounted to 0.004 µM on PDE2A and 1.83 µM against PDE10.
In the same order, the values of `Cc1nc2ccc(C(F)(F)F)nc2n2c(-c3cc(C(C)(C)O)ccc3F)nnc12` [Example 103c] are 0.622 µM and 7980 µM.
`Cc1nc2ccc(C3CC3)nc2n2c(-c3cc(OC4COCC4O)ccc3Cl)nnc12` (single isomer, unassigned) [Example 58c]: the “Half-life - t½” value in series [1] was determined as 2.17 h.
As for `Cc1ccc(C2(O)CCOCC2O)cc1-c1nnc2c(C)nc3ccc(C4CC4)nc3n12` (racemic) [Example 104], the IC50 on PDE2A was found to be 0.036 µM; on PDE10 it was 7.72 µM. Further, in series [1], the “Half-life - t½” value is 2.17 h.
In the same order, the values of `Cc1ccc2nc(C)c3nnc(-c4cc(C5(O)CCC5)ccc4C)n3c2n1` [Example 102] are 0.103 µM, 2.26 µM and 2.17 h.
Consider `Cc1ccc(OCC(C)(C)O)cc1-c1nnc2c(C)nc3ccc(C(C)C)nc3n12` [Example 51], for which the IC50 at PDE2A came to 0.009 µM. Further, in series [1], the “Half-life - t½” value worked out at 2.17 h.
As for `Cc1ccc(C2(O)CCOCC2)cc1-c1nnc2c(C)nc3ccc(C4CC4)nc3n12` [Example 103], the values for the IC50 at PDE2A and on PDE10 were 0.003 µM and 1.01 µM, respectively.
Consider `Cc1nc2ccc(C3CC3)nc2n2c(-c3cc(OC4COCC4O)ccc3Cl)nnc12` (single isomer, unassigned) [Example 58b], for which the “Half-life - t½” value in series [1] was 2.17 h.
For `Cc1nc2ccc(C(F)(F)F)nc2n2c(-c3cc(OC4COCCC4O)ccc3F)nnc12` (single isomer, unassigned) [Example 110b], the results for the IC50 on PDE2A and against PDE10 were 0.388 µM and above 10 µM, respectively.
For the compound `Cc1nc2cc(C(C)C)cnc2n2c(-c3cc(OCC(C)(C)O)ccc3Cl)nnc12` [Example 54], the IC50 turned out to be 0.058 µM on PDE2A and 0.798 µM on PDE10. For the same compound, the “Half-life - t½” value in series [1] was 2.17 h.
For `Cc1ccc(OC2COCC2O)cc1-c1nnc2c(C)nc3ccc(C4CC4)nc3n12` (single isomer, unassigned) [Example 57a], the “Half-life - t½” value in series [1] is 2.17 h.
Consider `Cc1nc2ccc(C(C)C)nc2n2c(-c3cc(O)ccc3F)nnc12` [Example 8], for which the IC50 on PDE2A came to 0.002 µM; on PDE10 it was 0.008 µM.
In the same order, the values of `Cc1nc2ccc(C3CC3)nc2n2c(-c3cc(CCC(C)(C)O)ccc3Cl)nnc12` [Example 69] are 0.001 µM and 0.891 µM.

In general, IC50 refers to the concentration at which inhibition is half-maximal. As a reminder, the half-life is how long it takes for the measured level to halve.
